Consider 20 compounds from patent US4425356A, “Lankacidin derivatives used in swine husbandry” (Takeda Chemical Industries, Ltd., priority 1980, dated 1984).

One assay relates to Treponema hyodysenteriae. The assay is described as follows: in vitro antibacterial activity (MIC, agar dilution method), Test Examples 1-3. It is filed as cell-based. The note with it: 37° C., 2 days, anaerobic; for MIC: Brachyspira hyodysenteriae, 48 h. As for the experimental part: Several agents were tested for in vitro antibacterial activity against Treponema hyodysenteriae, the pathogenic bacteria causing swine dysentery, by the method of testing drug sensitivity of Treponema hyodysenteriae (Kashiwazaki et al. Abstracts of Papers presented at the 82nd Meeting of the Japanese Society of Veterinary Science, page 101, 1976).
(1) Strains: These strains belong to Treponema hyodysenteriae isolated
from the bloody mucous faeces of dysenteric pigs in Japan.
(2) Antimicrobial activity assay: Agar dilution method
(3) Inoculum size: A loopful of bacterial suspension (10^6 CFU/ml)
(4) Cultural conditions: GasPak anaerobic system (BBL), 37° C., 2
Typical agents among compound (I) were tested for in vitro antibacterial activity by the same method as in Test Example 1.
The experimental conditions are the same as in Test Example 1 (Table 1).
Agents of compound (I) were tested for in vitro antibacterial activity by the same method as in Test Example 1.
(In agar dilution, organisms are placed on agar that contains the substance at set levels.)

Assay [1] deals with Treponema hyodysenteriae 78/A strain. Nature of the assay: efficacy against swine dysentery under experimental infection conditions in pigs (drug in feed), Test Examples 5-7. The note with it: 50 ppm in feed. It is filed as in vivo, Landrace pigs. As for the experimental part: Lankacidin C was tested for efficacy against swine dysentery under experimental infection conditions. Thus, twelve 6-week-old Landrace pigs (4 per group) were used. The test drug was admixed to a concentration of 100 ppm with the domestically formulated starter feed for young pigs without antibiotics. The animals were provided with the ration ad libitum. Infection of the pigs was effected by direct intragastrical administration to the SPF pigs of an inoculum prepared by preliminary anaerobic cultivation of the Treponema hyodysenteriae 78/A strain on a 5% horse blood added agar plate, mashing together with the culture medium and admixing with 5% mucin added phosphate buffer. Colonic contents and mucosa were collected from pigs which developed typical signs of swine dysentery, and diluted two-fold with 5% mucin added phosphate buffer. The dilution was used as the final inoculum, and 100 ml of the dilution was directly injected into the stomach of test pigs at the age of 7 weeks (fasted for 24 hours before infection). The pigs were fed for 21 days following infection.
The data are each the mean value per head for the 21day period from
infection to autopsy. Different alphabetic letters on the same line
indicate that there is a significant difference between the data to which
they are attached (P <0.05).
Lankacidin C was tested at concentrations in feed of 100 ppm and lower by the same method as in Test Example 5, with carbadox, a commonly used anti-swine-dysentery agent, for comparison.
The anti-swine-dysentery effects of 10 ppm each of lankacidin A and lankacidin C 14-propionate were examined by the procedure of Test Example 6.

The mark [2] stands for this setting: strain 78/A, read-out: Minimum Inhibitory Concentration.
[3] abbreviates: strain CD1 (CD-1), read-out: Minimum Inhibitory Concentration.
Setting [4] is: strain DJ70P1, read-out: Minimum Inhibitory Concentration.
Where [5] appears, read: strain MK-2, read-out: Minimum Inhibitory Concentration.

≈ marks a conversion by molar mass, not a printed value. Where “and” joins values, the source holds several entries; their conditions need not be identical. Equal values may be shown once. Read-outs that look alike come from different tables or passages of the source.

Consider `CC[C@H]1OC(=O)[C@H](C)[C@@H](O[C@H]2C[C@@](C)(OC)[C@@H](O)[C@H](C)O2)[C@H](C)[C@@H](O[C@@H]2O[C@H](C)C[C@H](N(C)C)[C@H]2O)[C@](C)(O)C[C@@H](C)C(=O)[C@H](C)[C@@H](O)[C@]1(C)O` [Erythromycin, reference compound], for which the MIC in the assay with Treponema hyodysenteriae (read-out: Minimum Inhibitory Concentration, strain 78/A) was over 100 µg/mL; in the assay on Treponema hyodysenteriae (read-out: Minimum Inhibitory Concentration, strain CD1 (CD-1)) it was over 100 µg/mL; in the assay with Treponema hyodysenteriae (read-out: Minimum Inhibitory Concentration, strain DJ70P1) it was over 100 µg/mL; in the assay with Treponema hyodysenteriae (read-out: Minimum Inhibitory Concentration, strain MK-2), over 100 µg/mL.

Regarding `CCCC(=O)OC1C=CC(C)=CCC(O)C=CC(C)=CC(NC(=O)C(C)=O)C2(C)C(=O)OC(C1)C(C)C2=O` (stereo not shown) [Lankacidin C 14-butyrate], the MIC was 0.78 µg/mL (≈ 1.47 µM) in the assay on Treponema hyodysenteriae (setting [2]), 1.56 µg/mL (≈ 2.95 µM) in the assay with Treponema hyodysenteriae (setting [3]), 1.56 µg/mL (≈ 2.95 µM) in the assay with Treponema hyodysenteriae (setting [4]) and 3.13 µg/mL (≈ 5.91 µM) with Treponema hyodysenteriae (setting [5]).

Turning to `CC(=O)C(=O)NC1C=C(C)C=CC(OC(=O)C(C)C)CC=C(C)C=CC(O)CC2OC(=O)C1(C)C(=O)C2C` (stereo not shown) [Lankacidin C 8-isobutyrate], the MIC turned out to be 6.25 µg/mL (≈ 11.8 µM) in the assay on Treponema hyodysenteriae (setting [2]), 6.25 µg/mL (≈ 11.8 µM) with Treponema hyodysenteriae (setting [3]), 3.13 µg/mL (≈ 5.91 µM) in the assay with Treponema hyodysenteriae (setting [4]) and 6.25 µg/mL (≈ 11.8 µM) in the assay with Treponema hyodysenteriae (setting [5]).

Turning to `CCC(=O)OC1C=CC(C)=CC(NC(=O)C(C)=O)C2(C)C(=O)OC(CC(OC(=O)CC)C=CC(C)=CC1)C(C)C2=O` (stereo not shown) [Lankacidin C 8,14-dipropionate, lankacidin C 8,14-dipropionate], the MIC in the assay with Treponema hyodysenteriae (setting [2]) came out at 0.78 µg/mL (≈ 1.36 µM); in the assay on Treponema hyodysenteriae (setting [3]) it was 1.56 µg/mL (≈ 2.73 µM); with Treponema hyodysenteriae (setting [4]) it was 0.78 µg/mL (≈ 1.36 µM); in the assay on Treponema hyodysenteriae (setting [5]), 0.78 µg/mL (≈ 1.36 µM).

For the compound Spiramycin [reference compound], the “Minimum Inhibitory Concentration” value with Treponema hyodysenteriae (strain 78/A), in the assay with Treponema hyodysenteriae (strain CD1 (CD-1)), with Treponema hyodysenteriae (strain DJ70P1) and with Treponema hyodysenteriae (strain MK-2) was over 100 µg/mL throughout.

Turning to `CC(=O)C(=O)NC1C=C(C)C=CC(O)CC=C(C)C=CC(OC=O)CC2OC(=O)C1(C)C(=O)C2C` (stereo not shown) [Lankacidin C 14-formate, lankacidin C 14-formate], the MIC in the assay with Treponema hyodysenteriae (setting [2]) was 6.25 µg/mL (≈ 12.8 µM); with Treponema hyodysenteriae (setting [3]) it was 12.5 µg/mL (≈ 25.6 µM); in the assay with Treponema hyodysenteriae (setting [4]) it was 6.25 µg/mL (≈ 12.8 µM); with Treponema hyodysenteriae (setting [5]), 6.25 µg/mL (≈ 12.8 µM).

For `CCCC(=O)OC1C=CC(C)=CC(NC(=O)C(C)=O)C2(C)C(=O)OC(CC(O)C=CC(C)=CC1)C(C)C2=O` (stereo not shown) [Lankacidin C 8-butyrate], the MIC with Treponema hyodysenteriae (setting [2]), with Treponema hyodysenteriae (setting [3]), in the assay with Treponema hyodysenteriae (setting [4]) and in the assay on Treponema hyodysenteriae (setting [5]) was 0.78 µg/mL (≈ 1.47 µM) in each case.

`CCC[C@@H]1C[C@@H](C(=O)N[C@@H]([C@H]2O[C@H](SC)[C@H](O)[C@@H](O)[C@H]2O)[C@@H](C)O)N(C)C1` [Lincomycin, reference compound]: the MIC with Treponema hyodysenteriae (setting [2]), in the assay on Treponema hyodysenteriae (setting [3]), in the assay on Treponema hyodysenteriae (setting [4]) and with Treponema hyodysenteriae (setting [5]) was 50 µg/mL (≈ 123 µM) each time.

In the case of `CCCC(=O)OC1C=CC(C)=CC(NC(=O)C(C)=O)C2(C)C(=O)OC(CC(OC(=O)CCC)C=CC(C)=CC1)C(C)C2=O` (stereo not shown) [Lankacidin C 8,14-dibutyrate], the MIC with Treponema hyodysenteriae (setting [2]) came out at 1.56 µg/mL (≈ 2.6 µM); in the assay with Treponema hyodysenteriae (setting [3]) it was 3.13 µg/mL (≈ 5.22 µM); in the assay on Treponema hyodysenteriae (setting [4]) it was 3.13 µg/mL (≈ 5.22 µM); with Treponema hyodysenteriae (setting [5]), 3.13 µg/mL (≈ 5.22 µM).

As for `CC(=O)C(=O)NC1C=C(C)C=CC(O)CC=C(C)C=CC(OC(=O)c2ccccc2)CC2OC(=O)C1(C)C(=O)C2C` (stereo not shown) [Lankacidin C 14-benzoate, lankacidin C 14-benzoate], the MIC in the assay on Treponema hyodysenteriae (setting [2]), in the assay with Treponema hyodysenteriae (setting [3]), in the assay on Treponema hyodysenteriae (setting [4]) and with Treponema hyodysenteriae (setting [5]) was 6.25 µg/mL (≈ 11.1 µM) in each case.

For `CC(=O)C(=O)NC1C=C(C)C=CC(O)CC=C(C)C=CC(OC(=O)C(C)C)CC2OC(=O)C1(C)C(=O)C2C` (stereo not shown) [Lankacidin C 14-isobutyrate], the MIC in the assay on Treponema hyodysenteriae (setting [2]) was 12.5 µg/mL (≈ 23.6 µM); with Treponema hyodysenteriae (setting [3]), 25 µg/mL (≈ 47.2 µM); in the assay with Treponema hyodysenteriae (setting [4]) it was 12.5 µg/mL (≈ 23.6 µM); in the assay with Treponema hyodysenteriae (setting [5]), 25 µg/mL (≈ 47.2 µM).

On to `CCCCC(=O)OC1C=CC(C)=CC(NC(=O)C(C)=O)C2(C)C(=O)OC(CC(O)C=CC(C)=CC1)C(C)C2=O` (stereo not shown) [Lankacidin C 8-valerate], for which the MIC with Treponema hyodysenteriae (setting [2]) turned out to be 1.56 µg/mL (≈ 2.87 µM); in the assay with Treponema hyodysenteriae (setting [3]), 3.13 µg/mL (≈ 5.76 µM); in the assay with Treponema hyodysenteriae (setting [4]) it was 1.56 µg/mL (≈ 2.87 µM); with Treponema hyodysenteriae (setting [5]), 3.13 µg/mL (≈ 5.76 µM).

Turning to `CCCCC(=O)OC1C=CC(C)=CCC(O)C=CC(C)=CC(NC(=O)C(C)=O)C2(C)C(=O)OC(C1)C(C)C2=O` (stereo not shown) [Lankacidin C 14-valerate], the MIC in the assay on Treponema hyodysenteriae (setting [2]) was 3.13 µg/mL (≈ 5.76 µM); with Treponema hyodysenteriae (setting [3]), 6.25 µg/mL (≈ 11.5 µM); with Treponema hyodysenteriae (setting [4]), 3.13 µg/mL (≈ 5.76 µM); with Treponema hyodysenteriae (setting [5]), 6.25 µg/mL (≈ 11.5 µM).

For the compound `CO[C@H]1C[C@H](O[C@H]2[C@H](C)[C@@H](O[C@@H]3O[C@H](C)C[C@H](N(C)C)[C@H]3O)[C@@H](C)C[C@@]3(CO3)C(=O)[C@H](C)[C@@H](O)[C@@H](C)[C@@H](C)OC(=O)[C@@H]2C)O[C@@H](C)[C@@H]1O` [Oleandomycin, reference compound], the MIC in the assay on Treponema hyodysenteriae (setting [2]), in the assay with Treponema hyodysenteriae (setting [3]), with Treponema hyodysenteriae (setting [4]) and in the assay with Treponema hyodysenteriae (setting [5]) was over 100 µg/mL in each case.

In the case of `CCC(=O)OC1C=CC(C)=CC(NC(=O)C(C)=O)C2(C)C(=O)OC(CC(OC(C)=O)C=CC(C)=CC1)C(C)C2=O` (stereo not shown) [Lankacidin A 8-propionate, lankacidin A 8-propionate], the MIC in the assay with Treponema hyodysenteriae (setting [2]), with Treponema hyodysenteriae (setting [3]), in the assay on Treponema hyodysenteriae (setting [4]) and with Treponema hyodysenteriae (setting [5]) was 6.25 µg/mL (≈ 11.2 µM) throughout.

Consider `CCC(=O)OC1C=CC(C)=CC(NC(=O)C(C)=O)C2(C)C(=O)OC(CC(O)C=CC(C)=CC1)C(C)C2=O` (stereo not shown) [Lankacidin C 8-propionate, lankacidin C 8-propionate], for which the MIC with Treponema hyodysenteriae (setting [2]), in the assay with Treponema hyodysenteriae (setting [3]), in the assay on Treponema hyodysenteriae (setting [4]) and with Treponema hyodysenteriae (setting [5]) was 1.56 µg/mL (≈ 3.03 µM) throughout.

As to `CC(=O)OC1C=CC(C)=CC(NC(=O)C(C)=O)C2(C)C(=O)OC(CC(OC(C)=O)C=CC(C)=CC1)C(C)C2=O` (stereo not shown) [Lankacidin C 8,14-diacetate, lankacidin C 8,14-diacetate], the MIC in the assay with Treponema hyodysenteriae (setting [2]) was 3.13 µg/mL (≈ 5.76 µM); in the assay on Treponema hyodysenteriae (setting [3]), 3.13 µg/mL (≈ 5.76 µM); in the assay with Treponema hyodysenteriae (setting [4]) it was 3.13 µg/mL (≈ 5.76 µM); in the assay on Treponema hyodysenteriae (setting [5]), 1.56 µg/mL (≈ 2.87 µM).

As for `CC(=O)C(=O)NC1C=C(C)C=CC(OC(=O)c2ccccc2)CC=C(C)C=CC(O)CC2OC(=O)C1(C)C(=O)C2C` (stereo not shown) [Lankacidin C 8-benzoate, lankacidin C 8-benzoate], the MIC in the assay with Treponema hyodysenteriae (setting [2]), with Treponema hyodysenteriae (setting [3]), in the assay with Treponema hyodysenteriae (setting [4]) and in the assay with Treponema hyodysenteriae (setting [5]) was 0.1 µg/mL (≈ 0.177 µM) throughout.

For `CO[C@@H]1[C@@H](O[C@@H]2O[C@H](C)[C@@H](O[C@H]3C[C@@](C)(O)[C@@H](OC(=O)CC(C)C)[C@H](C)O3)[C@H](N(C)C)[C@H]2O)[C@@H](CC=O)C[C@@H](C)[C@@H](O)/C=C/C=C/C[C@@H](C)OC(=O)C[C@H]1O` [Leucomycin, reference compound], the MIC in the assay with Treponema hyodysenteriae (setting [2]), in the assay on Treponema hyodysenteriae (setting [3]), in the assay with Treponema hyodysenteriae (setting [4]) and in the assay with Treponema hyodysenteriae (setting [5]) was over 100 µg/mL each time.

Regarding `COC(=O)N/N=C/c1c[n+]([O-])c2ccccc2[n+]1[O-]` [Carbadox, carbadox, reference compound], in assay [1], the “Number of pigs from which the pathogen was detected, in colonic mucosa” value was found to be 0; the “Number of pigs from which the pathogen was detected, in feces” value is given as 0; the “Number of pigs showing colonic lesions” value was 0. In assay [1] (21-day test period), the “Number of days on which mucous bloody stool was observed” value came out at 0 days and the “Number of pigs showing signs of infection/number of pigs used” value was 0/4. For the same compound, in assay [1] (21 day period, mean per head), the Body weight gain is 473 grams/day and 552 grams/day; the Feed conversion was 2.08 and 1.83; the Feed intake was 20.7 kg and 21.2 kg. In assay [1] (mean per head), the “Body weight at the time of completion of test” value is 21.0 kg and 22.7 kg.
